From paper PMC6442119, “The antitumor activity of CYB-L10, a human topoisomerase IB catalytic inhibitor” (Journal of Enzyme Inhibition and Medicinal Chemistry, 2019)

Key:
HL-60 (TB) = assay: NCI60 assay; assay type: cell-based; conditions: Homo sapiens, Leukemia, 48 h
Description: The NCI60 (National Cancer Institute 60) tumor cell drug discovery panel was developed as a tool to assess the anticancer activity of compounds against a range of cell lines derived from nine cancer cell types, including hematological malignancies, lung, central nervous system, melanoma, colorectal, renal, breast, ovarian, and prostate[18]^,[23]^,[24]. CYB-L10 was tested using the protocols by the NCI, which has been described previously. […] The overall antiproliferative potential is quantified as a mean-graph midpoint (MGM).
It was selected and submitted to National Cancer Institute (NCI, USA) for a developmental therapeutics assay against the 60 clinical tumor cell lines representing nine tissue types (NCI60)[23–25]. The tumor cells were incubated with CYB-L10 for 48 h and stained with sulphorhodamine B dye. Cell growth inhibition (GI50) was calculated relative to the control without compound.

HepG2/ADR = assay: MTT assay; assay type: cell-based, human
TOP2 = assay: TOP2-mediated relaxation assay; assay type: biochemical; conditions: 25 μM, relaxation of supercoiled pBR322 DNA
Description: Figure S1. TOP2-mediated relaxation assay. Lane 1, supercoiled pBR322 DNA alone; Lane 2, DNA
and enzyme; Lanes 3, DNA, enzyme and the positive control etoposide (VP16) at 25 μM; Lanes 4,
DNA, enzyme and CYB-L10 at 25 μM. R: relaxed DNA. Sc: supercoiled DNA.
(1 picture or pasted object on this page, not shown here)

HCT116-siTop1 = assay: MTT assay; assay type: cell-based; conditions: Homo sapiens; Resistant subline HCT116-siTop1, MTT, 72 h
HepG2 = assay: MTT assay; assay type: cell-based; conditions: Homo sapiens; Parental cell line HepG2, MTT, 72 h
MCF-7 = assay: MTT assay; assay type: cell-based; conditions: Homo sapiens, MCF7; Parental cell line MCF-7, MTT, 72 h
RC0.1 = assay: MTT assay
HCT116 xenograft = assay: In vivo antitumor activity, HCT116 xenograft; design: species or system nude mice; conditions: for tumor weight inhibition (TWI): HCT116 xenograft nude mice
Description: Athymic nude mice bearing the nu/nu gene were obtained from Laboratory Animal Center of Sun Yat-sen University and maintained in pathogen-free conditions to establish the model of xenografts of HCT116. All animals were used under the Policy on the Care and Use of Laboratory Animal of Sun Yat-sen University. Male nude mice 4–5 weeks old weighing 12–15 g were used. HCT116 tumor preinduced in the mice by subcutaneously injecting of HCT116 cells (100 µL, 1 × 10^7 cells) was implanted. When the implanted tumors had reached a volume of about 80 mm^3, the mice were randomly divided into three groups (n = 5) and administered by i.p. injection at a frequency of once every 3 days. The testing groups were treated with CYB-L10 at 20 mg/kg and 6.7 mg/kg dose, respectively. The control group was treated with an equivalent volume of saline. Tumor volumes (V) were monitored by caliper measurement of the length and width, and calculated using the formula: V = (larger diameter) × (smaller diameter)^2/2, and growth curves were plotted using average tumor volume within each experimental group at the set time points. At the end of treatment, the animals were sacrificed, and the tumors were removed and weighed. The tumor weight inhibition (TWI) was calculated according to the formula: TWI = (1 − Mean tumor weight of the experimental group/Mean tumor weight of the control group) × 100%. Statistical comparisons were conducted using a one-way analysis of variance, followed by Tukey’s test.
A human colon cancer HCT116 xenograft nude mice model was established to evaluate the antitumor efficiency of CYB-L10 in vivo. Mice were randomly divided into three groups and administered i.p. injection at a frequency of once every 3 days. Two groups were treated with CYB-L10 at 20 mg/kg and 6.7 mg/kg dose, respectively. The negative control group was treated with an equivalent volume of saline.

Structure (SMILES): O=C1c2cccnc2C(=O)c2c1c(C(=O)OCCN1CCOCC1)c1ccccn21 [CYB-L10]
- GI50 (HL-60 (TB)): 240 nM
- Resistance ratio (HepG2/ADR; GI50 HepG2/ADR / GI50 HepG2): 11.4
- GI50 (HepG2/ADR; Homo sapiens, Resistant subline HepG2/ADR, MTT, 72 h): 740 ± 240 nM
- inhibition against TOP2 (TOP2): very weak inhibition
- GI50 (HCT116-siTop1): 190 ± 92 nM
- GI50 (HepG2): 65 ± 30 nM
- GI50 (MCF-7): 91 nM
- Resistance ratio (RC0.1; GI50 RC0.1 / GI50 DU-145): 40.6
- GI50 (RC0.1; Homo sapiens, 72 h, read-out: GI50 ± SD): 650 ± 10 nM
- tumor weight inhibition (TWI) (HCT116 xenograft; 6.7 mg/kg i.p. once every 3 days): 27.6%
- tumor weight inhibition (TWI) (HCT116 xenograft; 20 mg/kg i.p. once every 3 days, p < 0.05): 38.3%
- body weight of the mice (HCT116 xenograft; 20 and 6.7 mg/kg i.p., vs negative control): no obvious loss
- tumor volume (HCT116 xenograft; 20 and 6.7 mg/kg i.p., vs negative control, dose-dependent): obviously reduced the tumor volume
